Measured values reported in paper doi:10.1101/2021.02.13.431112v1 (bioRxiv, 2021).

Tests used:
MCF-7 = conditions: read-out: IC-50, MCF-7; unit printed only in neighbouring columns; ref 39b; cited from earlier work
BT-549 = conditions: read-out: IC-50, BT-549; unit printed only in neighbouring columns; ref 39b; cited from earlier work
MDA-MB-231 = conditions: read-out: IC-50, MDA-MB-231; unit printed only in neighbouring columns; ref 39b; cited from earlier work
[1] = test system: induced pluripotent stem cell derived cardiomyocytes (iPSC); experiment: MTT viability assay, IC-50; format: cell-based, human
MDA-MB-231R cells = experiment: Confocal uptake of NBD-Def1; format: cell-based; conditions: confocal microscopy, 20, 6.6 or 2.2 ug/ml, 15 min, 37C, N=4
[2] = test system: MCF-10A normal epithelial breast cells; experiment: Confocal uptake of NBD-Def1; format: cell-based; conditions: confocal microscopy, 5 times higher dose (200 mg/mL)
fibroblasts cells = experiment: Confocal uptake of NBD-Def1; format: cell-based; conditions: confocal microscopy, 5 times higher dose (200 mg/mL)
SKOV3 cells = experiment: Confocal uptake of NBD-Def1; format: cell-based; conditions: confocal microscopy, 20, 6.6 or 2.2 ug/ml, 15 min, 37C, N=4
thioredoxin (Trx) = target: T1, thioredoxin (Trx) (Homo sapiens, UniProt P10599); experiment: Thioredoxin redox Western blot; format: cell-based; conditions: 20 μM Def1, Doxorubicin resistant MDA-MB-231-R cells, N=4
T1 sequence (P10599 1-105): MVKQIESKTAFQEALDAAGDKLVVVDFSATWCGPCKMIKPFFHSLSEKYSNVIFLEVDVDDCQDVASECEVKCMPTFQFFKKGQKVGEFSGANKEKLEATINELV

MCF-10A Epithelial Cells = experiment: MTT viability assay, IC-50; format: cell-based; conditions: normal epithelial breast cells, 24 h
[3] = test system: Bone Marrow Cells MSC-001F; experiment: Viability assay, IC-50; format: cell-based; conditions: normal cells
MCF-7R cells = experiment: Ceramide release by LC-MS/MS; format: cell-based; conditions: 20 μM, 6 hrs, Doxorubicin resistant MCF-7R cells, n=4, preliminary
ASK1 = experiment: Immunoblot of ASK1 Thr845 phosphorylation; format: cell-based; conditions: 50 μM, 60 minutes, MDA-MB-231 cells, vs solvent control and NAC control, N=4
[4] = 15N NMR chemical shift mapping of Def1 binding to GlcCer; conditions: 15N-labeled Def1, chemical shift perturbation, T1, 15N-1H NOE; N=3

For “hBD-1: Human Beta Defensin (hBD-1) with three S-S bonds (DHYNCVSSGGQCLYSACPIFTKIQGTCYRGKAKCCK; Beta-defensin 1; UniProt P60022 33-68, looked up)”, the IC50 (MCF-7) is listed as 21 µM, the IC50 (BT-549) is listed as 17 µM and the IC50 (MDA-MB-231) is listed as 18 µM.
In the case of COc1cccc2c1C(=O)c1c(O)c3c(c(O)c1C2=O)C[C@@](O)(C(=O)CO)C[C@@H]3O[C@H]1C[C@H](N)[C@H](O)[C@H](C)O1 [Doxorubicin, reference compound], the “more potency for cardiomyocytes and bone marrow cells” value ([1]; in contrast to Def1) is reported as 10-15 times.
For “6-((N-(7-nitrobenz-2-oxa-1, 3-diazol-4-yl) amino) hexanoyl (NBD)-Def1 [NBD-Def1]”, the “uptake, MDA-MB-231R” value (MDA-MB-231R cells) was “concentration dependent uptake”, the “uptake, normal epithelial breast cells MCF-10A” value [2] was “did not pick up” and the “uptake, fibroblasts” value (fibroblasts cells) was “did not pick up”. For the same molecule, the “uptake, SKOV3” value (SKOV3 cells) was “concentration dependent uptake”.
In the case of Medicago sativa Defensin 1 [Def1], the “oxidation of Trx (new band at 28 KDa)” value (thioredoxin (Trx)) is reported as “oxidation of Trx”, the “IC-50, iPSC (induced pluripotent stem cell derived cardiomyocytes)” value ([1]; human iPSC cardiomyocytes, MTT, 24 h) is reported as greater than 180 µM and the “IC-50, MCF-10A Epithelial Cells” value (MCF-10A Epithelial Cells) is reported as greater than 200 µM. For the same molecule, the “IC-50, Bone Marrow Cells MSC-001F” value [3] was greater than 150 µM, the accumulation of ceramide (MCF-7R cells) was “enhanced accumulation of ceramide” and the “phosphorylation of Thr845 residue of ASK1” value (ASK1) was “significant increase”. The “binding to GlcCer” value [4] was “binds to GlcCer at two regions”.
